Results as given in EP2050437A1, “Improved pharmaceutical dry powder compositions for inhalation” (Laboratoires SMB, priority 2007, dated 2009).

Key:
Type in all cases: physicochemical
[1] = In vitro deposition / fine particle assessment with Multi-stage Liquid Impinger (MsLI), Aerolyzer device; set-up: Metered dose / Device / Throat / Stage 1 / Stage 2 / Stage 3 / Stage 4 / Filter: unit not given here; settings: loaded dose=15mg; for FPD: Fine Particle Dose, aerodynamic diameter inferior to 5 µm
Description: The Fine Particle Dose (FPD) has been determined by the method described in the European Pharmacopoeia 4 for the aerodynamic assessment of fine particle, using Apparatus C - Multi-stage Liquid Impinger (MsLI). A dry powder inhalation device (Aerolyzer®, Novartis, Switzerland) was filled with a No. 3 HPMC capsule (Capsugel, France) loaded with 15 mg powder. The flow rate was adjusted to a pressure drop of 4 kPa, as typical for inspiration by a patient, resulting in a flow rate of 100 l/min during 2.4 seconds. At least 3 Fine Particle Dose (FPD) determinations were performed on each formulation and analysis was carried out by a suitable and validated analytical HPLC method. In order to increase the UV absorptivity of the molecule, a derivatization method was applied. The suitable and validated quantification method is described in the USP 25. The HPLC system consisted of a High Performance Liquid Chromatography system (HP 1100 series, Agilent technologies, Belgium), equipped with a quartenary pump, an autosampler and a variable wavelength UV detector set at 365 nm. The separation system was a 30 cm x 3.9 mm stainless steel (5 µm particle size) reversed-phase C18 column (Alltima, Alltech, Belgium). Samples of 20 µl volume were injected. The mobile phase was prepared by dissolving 2 g of Tris(hydroxymethyl) aminomethane in 800 ml of water. After this, 20 ml of H2SO4 1 N was added and then the solution was diluted with acetonitrile to obtain 2 l, mixed and passed through a filter of 0.2 µm porosity. The flow rate was 1.2 ml/min. The mass of test substance retained at each stage was determined from the HPLC analysis of the recovered solutions. Starting at the filter, a cumulative mass deposition (undersize in percentage) vs. cut-off diameter of the respective stages was derived and the FPD was calculated by interpolating the mass of active ingredient less than 5 µm. […] It is considered to be directly proportional to the amount of drug able to reach the pulmonary tract in vivo, and consequently, the higher the value FPD, the higher the estimated lung deposition. […] Table 2: In vitro deposition study, with formulation given in example 1 vs. micronized tobramycin (raw material) (loaded dose=15mg, n=3).

[2] = Particle size distribution by laser diffraction, Mastersizer 2000 with dry sampling (Scirocco); settings: individual particles, dry powder
Text: However, it may be desirable for unstable (redispersible) agglomerates to be formed in the powder, and the size of the agglomerates may be as large as 10 µm or more. The size of particles in the powder, when considering the agglomerates, is to be taken as the size of the individual particles making up the agglomerate. The sizes of the individual particles and of the agglomerates may be determined using a suitable laser light diffraction techniques. For example, the higher compressed air values applied in the dispersion unit of the Mastersizer 2000® (Malvern, U.K.) (up to 4 bar), permit all the agglomerates to break down, especially for micron-sized powders, as is the case for DPI formulations. […] For each formulation, the particle size distribution is measured by laser diffractometry, using a dry sampling system with a suitable SOP (Standard Operating Procedure), (Scirocco®, Mastersizer 2000, Malvern, UK) and a Spraytec, (Malvern). […] The particle size distribution measured with the Mastersizer 2000, Scirocco (Malvern) gives an indication of the size distribution of the individual particles of the powder composition as the powder agglomerates are broken down during the measuring process. […]

[3] = Particle size distribution by laser diffraction, Spraytec with inhalation cell (simulated breathing); settings: agglomerates as at the exit of the DPI
Text: However, it may be desirable for unstable (redispersible) agglomerates to be formed in the powder, and the size of the agglomerates may be as large as 10 µm or more. The size of particles in the powder, when considering the agglomerates, is to be taken as the size of the individual particles making up the agglomerate. The sizes of the individual particles and of the agglomerates may be determined using a suitable laser light diffraction techniques. For example, the higher compressed air values applied in the dispersion unit of the Mastersizer 2000® (Malvern, U.K.) (up to 4 bar), permit all the agglomerates to break down, especially for micron-sized powders, as is the case for DPI formulations. […] This allows the size properties of DPIs to be measured under simulated breathing conditions. For each formulation, the particle size distribution is measured by laser diffractometry, using a dry sampling system with a suitable SOP (Standard Operating Procedure), (Scirocco®, Mastersizer 2000, Malvern, UK) and a Spraytec, (Malvern). The particle size distribution measured with the Mastersizer 2000, Scirocco (Malvern) gives an indication of the size distribution of the individual particles of the powder composition as the powder agglomerates are broken down during the measuring process. […]

FPD ([1]; n=3): 5.5 ± 0.9 mg | FPD ([1]; n=3, listed as micronized tobramycin): around 5.5 mg | Metered dose ([1]; n=3): 12.9 ± 0.3 | Filter ([1]; mass deposited, n=3): 1.4 ± 0.3 | Stage 1 ([1]; mass deposited, n=3): 0.9 ± 0.3 | Stage 2 ([1]; mass deposited, n=3): 0.6 ± 0.4 | Stage 3 ([1]; mass deposited, n=3): 2.1 ± 0.9 | Stage 4 ([1]; mass deposited, n=3): 1.7 ± 0.6 | Throat ([1]; mass deposited, n=3): 0.3 ± 0.1 | Device ([1]; mass deposited, n=3, 100 l/min during 2.4 seconds): 6.0 ± 0.7 | mass median diameter (d(0.5)) [2]: about 1.3 µm | particles having a diameter below 5.0 µm [3]: 72%
Compound: NC[C@H]1O[C@H](O[C@H]2[C@H](O)[C@@H](O[C@H]3O[C@H](CO)[C@@H](O)[C@H](N)[C@H]3O)[C@H](N)C[C@@H]2N)[C@H](N)C[C@@H]1O [Micronized tobramycin, tobramycin]
